Patent publication US20210236443A1, “METHOD OF TREATMENT OF NON-ALCOHOLIC STEATOHEPATITIS, NASH” (KRISH BIOTECH RESEARCH PRIVATE LIMITED, priority 2018, published 2021)
pIC50: −log10 of the molar value.

What was measured:
MCP-1 = MCP-1 release in LPS-stimulated RAW 264.7 cells; format: cell-based; settings: Mus musculus, RAW264.7, LPS 10 ng/ml, 2.5 hours, compound pre-incubation 1 hour
Method: (§1) Assay for TNFα and MCP-1 Release in RAW 264.7 Cells:
(§2) Cells were seeded at a density of 50000 cells/well/100 μl in a 96 well plate and left overnight in the CO2 incubator under normal cell culture conditions for adherence. Next day, old media was removed and fresh media added per well with compounds in duplicate for 1 hour with 0.1% DMSO. Cells were stimulated with LPS (Lipopolysaccharides) at 10 ng/ml and incubated at cell culture conditions for 2.5 hours. Post incubation, the supernatant was collected in fresh 96 well plate and stored at −80 degree for TNF-α, and MCP-1 estimation.
(§3) The dose-response curve was analyzed using Sigma Plot/Graph Pad. The IC50 (concentration of the test compounds where 50% of compounds' maximal activity is observed) values were calculated from the dose-response curve.

TNFα = TNFα release in LPS-stimulated RAW 264.7 cells; format: cell-based; settings: Mus musculus, RAW264.7, LPS 10 ng/ml, 2.5 hours, compound pre-incubation 1 hour, read-out: TNF-alpha IC50
Method: as §1, §2, §3

Row | pIC50 (MCP-1) | pIC50 (TNFα) | SMILES
1 | 6.64 | 6.20 | O=C(O)CCCc1ccc(OCc2cc(F)ccc2-c2ncc(C3CC3)s2)cc1 [SI. No. 24, 4-(4-((2-(5-Cyclopropylthiazol-2-yl)-S-fluorobenzyl)oxy)phenyl)butanoic acid]
2 | 5.97 | 6.18 | CC1(c2ccc(-c3ccc(F)cc3COc3ccc(CCCC(=O)O)cc3)s2)CC1 [SI. No. 20, 4-(4-((5-Fluoro-2-(5-(1-methylcyclopropyl)thiophen-2-yl)benzyl)oxy)phenyl) butanoic acid]
3 | 6.54 | 5.25 | CC1(c2ccc(-c3ccc(F)cc3COc3ccc(CCCC(=O)O)cc3)cc2)CC1 [SI. No. 2, 4-(4-((4-Fluoro-4′-(1-methylcyclopropyl)-[1,1′-biphenyl]-2-yl)methoxy)phenyl)butanoic acid]
4 | 5.69 | < 5.00 | O=C(O)CCCc1ccc(OCc2cc(F)ccc2-c2ccc(C3CC3)s2)cc1 [SI. No. 8, 4-(4-((2-(5-Cyclopropylthiophen-2-yl)-S-fluorobenzyl)oxy)phenyl)butanoic acid]
